The text below walks through data of patent publication US11384066B1, “Heterocyclic compounds useful as aurora a selective inhibitors” (Jacobio Pharmaceuticals Co., Ltd., priority 2020, dated 2022).

As a reminder, the IC50 is the midpoint of a concentration-inhibition curve. One may read the clearance as the rate of elimination divided by the concentration. A high value points to a high capacity for elimination. What is called AUC(0-t) is the area under the concentration-time curve up to a stated or last time point. Low values mean less exposure, high ones more exposure. As usually defined, the half-life is the time in which the quantity being followed falls by half. The Cmax is the peak of the concentration-time curve.

One series deals with Aurora B (Homo sapiens (Human), UniProt Q96GD4). Put plainly: Aurora B kinase assay (mobility shift assay). It counts as biochemical. Particulars: ratio of Aurora B IC50 to Aurora A IC50. On the procedure:
(§1) Example A: Evaluation of Aurora a and Aurora B Inhibitory Effect—Kinase Assay
(§2) The inhibitory activities of a test compound against Aurora A and Aurora B were measured according to the following method.
(§3) The IC50 value of Aurora A and Aurora B kinase was performed by Sundia MediTech Co. Ltd. using Mobility shift assay.
(§4) • (1) Prepare a 1× kinase buffer [50 mM 4-(2-hydroxyethyl)-1-piperazineethanesulfonic acid (HEPES), PH 7.5, 0.01% Brij-35, 10 mM MgCl2, 2 mM dithiothreitol (DTT)]. • (2) Prepare compound:
(§5) The testing compound was dissolved with DMSO. The testing compound was diluted up to 100× final concentration in a 384-well plate. Transfer 250 nL of the compound dilution to a 384-well assay plate using Echo 550. 100% DMSO of 250 nL was added to the negative control well and the positive control well. • (3) Prepare a 2.5× enzyme solution using the above 1× kinase buffer. • (4) Add 10 μL of the 2.5× enzyme solution to the compound well and the positive control well of the 384-well assay plate. Add 10 μL of the 1× kinase buffer to the negative control well. • (5) The 384-well plate was centrifuged at 1000 rpm for 30 seconds and incubated at room temperature for 10 min. • (6) A mixture of ATP and Kinase substrate 21 with a final concentration of 25/15× was prepared by the 1× kinase buffer. • (7) Add 15 μL of the mixture of 25/15×ATP and kinase substrate solution 21 to start reaction. • (8) The 384-well plate was centrifuged at 1000 rpm for 30 seconds and incubated at room temperature. • (9) 30 μL of the stop and detection buffer was added to stop the kinase reaction and centrifuged at 1000 rpm for 30 seconds. • (10) Collect data on Caliper EZ ReaderII. Data Analysis:
(§6) Conversion %_sample is conversion rate data of samples. Conversion %_min is mean value of negative control (conversion rate data without enzyme activation). Conversion %_max is mean positive control (conversion rate data without compound).
(§7) The log of concentration is on the X axis, and the percentage inhibition is on the Y axis. Fit the Quantitative effect curves with log (inhibitor) vs. response—Variable slope in GraphPad Prism5 obtain IC50 values. Equation used is Y=Bottom+(Top−Bottom)/(1+10^((Log IC50−X)*HillSlope)).

The subject of the next series is NCI-H2171 cells. Put plainly: Cell proliferation assay (CellTiter-Glo), NCI-H2171. As to conditions: Homo sapiens, NCI-H2171, 120 h, 5 days. Format: cell-based. On the procedure:
(§8) Example B: Cell Proliferation Assay
(§9) NCI-H2171 and NCI-H446 cell proliferation analysis were conducted by CellTiter-Glo (Promega, Cat #G1111). The cells will be harvested respectively during the logarithmic growth period and counted with hemocytometer. […] Adjust NCI-H2171 and NCI-H446 cells concentrations to 1.0×10^5 cells/mL with complete medium (RPMI-1640 medium supplemented with 10% (v/v) fetal bovine serum). 100 μL/cell suspensions were added to 96-well plates, and the final cell densities were 1.0×10^4 cells/well. The plate will be cultured overnight in 5% CO2 and 95% humidity at 37° C. The next day, the test compound was dissolved in DMSO as stock solution. Then the different concentrations of compound were added into 96-well plates. The plates will be cultured for 5 days, then measured by means of CellTiter-Glo assay. 50 μL/cell CellTiter-Glo reagent was added into 96-well plates. Shock incubation for 5 min and then stand incubation for 10 min at room temperature. Record the Luminosity values using an microplate spectrophotometer (Spark, Tecan). Fit the data using GraphPad 8.0 and obtain IC50 values.
(§10) Formula: Survival (%)=(Lumtest−Lummedia control)/(Lumcell control−Lummedia control)×100%
A general note: Cellular ATP, detected with luciferase, serves as a proxy for viable cell number.

The next series deals with NCI-H446 cells. Put plainly: Cell proliferation assay (CellTiter-Glo), NCI-H446. Format: cell-based. As to conditions: Homo sapiens, NCI-H446, 120 h, 5 days. On the procedure: as §8, §9, §10
The subject of series [1] is NCI-H446 human small cell lung cancer xenograft. As to the kind of experiment: In vivo anti-tumor efficacy, NCI-H446 xenograft model. Set-up: species or system BALB/c nude mice. As to conditions: 15 mg/kg po., BID × 10days, QD × 19days, treatment 29 days, Table C does not say which xenograft (NCI-H446 or NCI-H69); for TV (mm^3): mean ± sem. On the procedure: This study is to examine the anti-tumor efficacy of test compounds in NCI-H446 and NCI-H69 human small cell lung cancer xenograft model in BALB/c nude mice. Each mouse was inoculated subcutaneously at the right flank region with NCI-H446 (3×10^6) and NCI-H69 cells (5×10^6) in 0.1 mL of PBS and Matrigel (1:1) for tumor development. The mouse were randomized according to tumor size and weight, the treatment began when the mean tumor size reached 100-200 mm^3. Anti-tumor activity was assessed according to relative tumor inhibition rate (TGI).
Tumor volumes were measured in two dimensions using a caliper, and the volume was expressed in mm^3 using the formula: V=0.5 a×b^2 where a and b are the long and short diameters of the tumor, respectively. Statistical analysis of difference in tumor volume among the groups were performed using one-way ANOVA. All data was analyzed using SPSS 22.0 software, p<0.05 was considered to be statistically significant.

A short description of a further series: PK in rat. It counts as in vivo. Particulars: rat, plasma, SD male rats; for clearance / Vd: IV: 3 mg/kg; for Vd: read-out: Vss; for AUC(0-t) / half-life / Cmax: PO: 10 mg/kg; for bioavailability: PO: 10 mg/kg vs IV: 3 mg/kg; for Cmax: read-out: Cmax. On the procedure: The compounds were dissolved into 10% DMSO, 30% PEG400, and 60% saline to obtain a solution. SD male rats were given the compound orally and intravenously. Then plasma samples were collected at 0 hour (pre-dose), 0.25, 0.5, 1, 2, 4, 7, 24 hours post-dose. Plasma drug concentration was detected by LC-MS/MS. Pharmacokinetic parameters were calculated using WinNonlin's software with non-compartmental model.

The next series has as its target Aurora A (Homo sapiens (Human), UniProt O14965). As to the kind of experiment: Aurora A kinase assay (mobility shift assay). Format: biochemical. On the procedure: as §1, §2, §3, §4, §5, §6, §7

Sequence of Aurora A (O14965 whole entry): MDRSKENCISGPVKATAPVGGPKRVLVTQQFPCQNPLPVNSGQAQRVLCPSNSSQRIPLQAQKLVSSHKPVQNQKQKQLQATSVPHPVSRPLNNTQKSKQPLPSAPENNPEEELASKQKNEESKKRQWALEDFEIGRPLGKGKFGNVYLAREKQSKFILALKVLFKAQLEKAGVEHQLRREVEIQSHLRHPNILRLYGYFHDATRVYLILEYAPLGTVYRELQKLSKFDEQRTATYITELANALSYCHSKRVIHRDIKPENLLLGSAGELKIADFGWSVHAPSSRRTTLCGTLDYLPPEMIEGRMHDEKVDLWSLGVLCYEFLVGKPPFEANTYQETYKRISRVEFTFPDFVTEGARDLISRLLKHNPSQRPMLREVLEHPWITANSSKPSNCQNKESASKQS
Sequence of Aurora B (Q96GD4 whole entry): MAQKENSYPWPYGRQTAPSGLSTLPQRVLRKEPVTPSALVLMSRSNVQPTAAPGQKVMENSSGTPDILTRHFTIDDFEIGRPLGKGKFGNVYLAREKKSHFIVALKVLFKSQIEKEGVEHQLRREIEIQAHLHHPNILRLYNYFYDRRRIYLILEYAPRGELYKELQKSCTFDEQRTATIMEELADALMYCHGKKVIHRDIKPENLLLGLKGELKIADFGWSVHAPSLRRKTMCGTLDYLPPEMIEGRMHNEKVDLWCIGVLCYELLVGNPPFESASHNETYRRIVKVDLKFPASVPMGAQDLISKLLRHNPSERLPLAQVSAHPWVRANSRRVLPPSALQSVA

On to `Cc1cc(Nc2nc(C[C@@]3(C(=O)O)CCN(Cc4cccc(Cl)c4F)[C@H](C)C3)ccc2F)[nH]n1` [Example 5, (2R,4R)-1-(3-chloro-2-fluorobenzyl)-4-((5-fluoro-6-((3-methyl-1H-pyrazol-5-yl)amino)pyridin-2-yl)methyl)-2-methylpiperidine-4-carboxylic acid], for which the “IC50 Ratio Aur B/Aur A” value on Aurora B came out at 1311. The IC50 in the series with NCI-H2171 cells stood at 30 nM. Moreover, in the series with NCI-H446 cells, the IC50 came out at 80 nM. For the same compound, in series [1], the “TGITV(%)” value came to 98% and the “TV (mm^3)” value was determined as 27 ± 5 mm^3. For the same compound, in the series “PK in rat”, the clearance was 2.74 mL/min/kg, the Vd was 0.56 L/kg, the AUC(0-t) turned out to be 179 µg·h/mL and the half-life was 4.25 h. In the series “PK in rat”, the bioavailability was found to be 168% and the Cmax stood at 26600 ng/mL. The IC50 at Aurora A turned out to be 0.59 nM.
Regarding `Cc1cc(Nc2ccc(F)c(C[C@@]3(C(=O)O)CCN(Cc4c(F)ccc(Cl)c4F)[C@H](C)C3)n2)n[nH]1` [Example 6, (2R,4R)-1-(3-chloro-2,6-difluorobenzyl)-4-((3-fluoro-6-((5-methyl-1H-pyrazol-3-yl)amino)pyridin-2-yl)methyl)-2-methylpiperidine-4-carboxylic acid], at Aurora B, the “IC50 Ratio Aur B/Aur A” value is on record as 6112. For the same compound, the midpoint of inhibition with NCI-H2171 cells, the IC50, lay at 55 nM. Moreover, it took 103 nM to reach half-maximal inhibition in the series with NCI-H446 cells (IC50). In addition, in the series “PK in rat”, the clearance was 0.67 mL/min/kg, the Vd amounted to 0.18 L/kg, the area under the curve AUC(0-t) came out at 215 µg·h/mL and the half-life is 6.3 h. Besides, in the series “PK in rat”, the bioavailability stood at 86% and the Cmax is 34900 ng/mL. At Aurora A, the IC50 amounted to 0.33 nM.
As to `Cc1cc(Nc2cc(C)c(F)c(C[C@@]3(C(=O)O)CCN(Cc4cccc(Cl)c4F)[C@H](C)C3)n2)n[nH]1` [Example 49, (2R,4R)-1-(3-chloro-2-fluorobenzyl)-4-((3-fluoro-4-methyl-6-((5-methyl-1H-pyraz-ol-3-yl)amino)pyridin-2-yl)methyl)-2-methylpiperidine-4-carboxylic acid], the “IC50 Ratio Aur B/Aur A” value at Aurora B is listed as 443. Inhibition with NCI-H2171 cells was half-maximal at 18 nM (IC50). The compound also registered an IC50 in the series on NCI-H446 cells of 24 nM. For the same compound, in series [1], the “TGITV(%)” value was 90% and the “TV (mm^3)” value worked out at 160 ± 26 mm^3. Besides, in the series “PK in rat”, the clearance turned out to be 1.05 mL/min/kg, the Vd was found to be 0.22 L/kg, the AUC(0-t) was 202 µg·h/mL and the half-life is 2.95 h. Further, in the series “PK in rat”, the bioavailability came out at 127% and the Cmax came out at 21000 ng/mL. For the same compound, the IC50 on Aurora A was found to be 0.7 nM.
For the compound `Cc1cc(Nc2cc(C)c(F)c(C[C@@]3(C(=O)O)CCN(Cc4c(F)ccc(Cl)c4F)[C@H](C)C3)n2)n[nH]1` [Example 50, (2R,4R)-1-(3-chloro-2,6-di-fluorobenzyl)-4-((3-fluoro-4-methyl-6-((5-methyl-1H-pyra-zol-3-yl)amino)pyridin-2-yl)-methyl)-2-methylpiperidine-4-carboxylic acid], on Aurora B, the “IC50 Ratio Aur B/Aur A” value came to 845. Also, the IC50 with NCI-H2171 cells stood at 25 nM. Moreover, half-maximal inhibition in the series with NCI-H446 cells (IC50) was put at 73 nM. Besides, in “PK in rat”, the clearance came out at 1.45 mL/min/kg, the Vd turned out to be 0.26 L/kg, the AUC(0-t) was 173 µg·h/mL and the half-life is 3.62 h. Besides, in “PK in rat”, the bioavailability is 140% and the Cmax stood at 16100 ng/mL. Moreover, on Aurora A, the IC50 turned out to be 0.52 nM.
On to `Cc1cc(Nc2cc(Cl)c(F)c(C[C@@]3(C(=O)O)CCN(Cc4cccc(Cl)c4F)[C@H](C)C3)n2)n[nH]1` [Example 72, (2R,4R)-1-(3-chloro-2-fluorobenzyl)-4-((4-chloro-3-fluoro-6-((5-methyl-1H-pyrazol-3-yl)amino)pyridin-2-yl)methyl)-2-methylpiperidine-4-carboxylic acid], for which the “IC50 Ratio Aur B/Aur A” value on Aurora B stood at 582. The IC50 with NCI-H2171 cells was 23 nM; in the series on NCI-H446 cells, 56 nM; on Aurora A it was 0.64 nM. Further, the “TGITV(%)” value in series [1] worked out at 89%. In series [1], the “TV (mm^3)” value is 176 ± 25 mm^3.
Take `Cc1cc(Nc2nc(C[C@@]3(C(=O)O)CCN(Cc4cccc(Cl)c4F)[C@H](C)C3)cc(Cl)c2F)n[nH]1` [Example 73, (2R,4R)-1-(3-chloro-2-fluorobenzyl)-4-((4-chloro-5-fluoro-6-((5-methyl-1H-pyrazol-3-yl)amino)pyridin-2-yl)methyl)-2-methylpiperidine-4-carboxylic acid]: the “IC50 Ratio Aur B/Aur A” value on Aurora B is given as 779. Besides, the values for the IC50 in the series with NCI-H2171 cells, in the series on NCI-H446 cells and at Aurora A were 27 nM, 63 nM and 0.76 nM, respectively.
Regarding `Cc1cc(Nc2nc(C[C@@]3(C(=O)O)CCN(Cc4cccc(Cl)c4F)[C@H](C)C3)cc(C)c2F)n[nH]1` [Example 78, (2R,4R)-1-(3-chloro-2-fluorobenzyl)-4-((5-fluoro-4-methyl-6-((5-methyl-1H-pyrazol-3-yl)amino)pyridin-2-yl)methyl)-2-methylpiperidine-4-carboxylic acid], the “IC50 Ratio Aur B/Aur A” value at Aurora B is 1219. In the series on NCI-H2171 cells, this compound returned an IC50 of 13 nM. Also, the IC50 with NCI-H446 cells was 32 nM. In series [1], the “TGITV(%)” value turned out to be 96% and the “TV (mm^3)” value is 65 ± 14 mm^3. In “PK in rat”, the clearance came to 0.585 mL/min/kg, the Vd worked out at 0.22 L/kg, the AUC(0-t) was found to be 236 µg·h/mL and the half-life was 4.61 h. In addition, in the series “PK in rat”, the bioavailability was determined as 85.8% and the Cmax came to 28900 ng/mL. The IC50 at Aurora A amounted to 0.37 nM.
